# Assay results taken from patent US20220348595A1, “COMPOUNDS AND METHODS FOR THE TARGETED DEGRADATION OF ESTROGEN RECEPTORS” (Endotarget Inc., priority 2021, published 2022).
# Tests used:
# Type in all cases: cell-based
# ERα = target: T1, ERα (Homo sapiens, UniProt P03372); assay: ER degradation in MCF-7 cells (Western blot); settings: for DC50: ER degradation, 24 hours; for Dmax: MCF7, Maximal ER degradation, read-out: Dmax
# T1 construct: endogenous in cells; host or cells: MCF-7
# T1 sequence (P03372 1-595): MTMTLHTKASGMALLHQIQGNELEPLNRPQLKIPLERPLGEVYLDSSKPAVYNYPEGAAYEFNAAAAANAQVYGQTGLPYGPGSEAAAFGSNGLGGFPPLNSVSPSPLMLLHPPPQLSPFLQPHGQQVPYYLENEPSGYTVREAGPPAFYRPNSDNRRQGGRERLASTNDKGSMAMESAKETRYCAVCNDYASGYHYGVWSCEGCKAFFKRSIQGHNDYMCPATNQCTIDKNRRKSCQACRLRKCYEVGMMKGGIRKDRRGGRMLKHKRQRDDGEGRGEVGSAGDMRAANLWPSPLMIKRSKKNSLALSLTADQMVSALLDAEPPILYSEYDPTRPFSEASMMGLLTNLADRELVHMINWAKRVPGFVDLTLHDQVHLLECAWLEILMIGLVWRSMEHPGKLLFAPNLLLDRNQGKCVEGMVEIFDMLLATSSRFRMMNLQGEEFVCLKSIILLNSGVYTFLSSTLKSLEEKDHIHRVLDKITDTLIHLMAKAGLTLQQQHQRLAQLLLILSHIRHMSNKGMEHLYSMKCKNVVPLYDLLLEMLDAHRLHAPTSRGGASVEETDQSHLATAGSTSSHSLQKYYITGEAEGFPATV
# In short: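 ERα levels assessed by Western blot (50 μg lysate protein, infrared scanner) after 24-hour exposure of MCF-7 cells to varied compound concentrations. Values reported as DC50, the concentration halving ER expression, and Dmax, the maximal ER reduction achieved across tested concentrations.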
# ER = target: T2, ER (Homo sapiens, UniProt P03372); assay: ER antagonism (T47D ERE luciferase), T47d-kb-Luc cells; settings: read-out: IC50 (ER antagonistm)
# T2 construct: endogenous in cells; host or cells: T47d-kb-Luc (T47D stably transfected with a luciferase reporter gene only)
# T2 sequence (P03372 1-595): T1 sequence (P03372 1-595)
# In short: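 Five sample concentrations, each in quadruplicate and repeated in at least three experiments, were tested for blocking of estradiol activity. Values were expressed relative to the estradiol control. The cell system was the T47d-kb-Luc stable breast cancer line.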
# [1] = tested on: MCF-7 breast cancer cells; assay: MCF-7 proliferation / cell viability assay; settings: Homo sapiens, MCF7; MCF-7 proliferation with 0.1 nM 17-beta estradiol; read-out: IC50 (anti-proliferation)
# In short: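 Survival ratio, with vehicle (DMSO) as 100%, was derived from Coulter-counted viable cell numbers. Cells were grown in 5% FBS DMEM and dosed for 5 days across six concentrations between 10^−10 M and 10^−5 M.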
SMILES,DC50 (ERα),Dmax (ERα),IC50 (ER),IC50 [1]
"CC/C(=C(\c1ccc(B(O)O)cc1)c1ccc(N2CCN(CCN3CCN(c4ccc5c(c4)CN(C4CCC(=O)NC4=O)C5=O)CC3)CC2)cc1)c1ccccc1 (stereo not shown) [Compound 61, (Z)-(4-(1-(4-(4-(2-(4-(2-(2,6-dioxopiperidin-3-yl)-1-oxoisoindolin-5-yl)piperazin-1-yl)ethyl)piperazin-1-yl)phenyl)-2-phenylbut-1-en-1-yl)phenyl)boronic acid]",< 10 nM,> 90%,10 to 50 nM,10 to 50 nM
"CC/C(=C(/c1ccc(B(O)O)cc1)c1ccc(N2CCN(CCN3CCN(c4ccc5c(c4)CN(C4CCC(=O)NC4=O)C5=O)CC3)CC2)cc1)c1ccccc1 (stereo not shown) [Compound 62, (E)-(4-(1-(4-(4-(2-(4-(2-(2,6-dioxopiperidin-3-yl)-1-oxoisoindolin-5-yl)piperazin-1-yl)ethyl)piperazin-1-yl)phenyl)-2-phenylbut-1-en-1-yl)phenyl)boronic acid]",< 10 nM,> 90%,10 to 50 nM,10 to 50 nM
CC/C(=C(/c1ccc(OCCN2CCN(CC3CCN(c4ccc5c(c4)CN([C@@H]4CCC(=O)NC4=O)C5=O)CC3)CC2)cc1)c1ccc(B(O)O)cc1)c1ccccc1 [Compound 70],< 10 nM,> 90%,< 10 nM,< 10 nM
CC/C(=C(\c1ccc(OCCN2CCN(CC3CCN(c4ccc5c(c4)CN([C@H]4CCC(=O)NC4=O)C5=O)CC3)CC2)cc1)c1ccc(B(O)O)cc1)c1ccccc1 [Compound 71],< 10 nM,> 90%,< 10 nM,< 10 nM
CC/C(=C(\c1ccc(OCCN2CCN(CC3CCN(c4ccc5c(c4)CN([C@@H]4CCC(=O)NC4=O)C5=O)CC3)CC2)cc1)c1ccc(B(O)O)cc1)c1ccccc1 [Compound 72],< 10 nM,> 90%,< 10 nM,< 10 nM
"CC/C(=C(/c1ccc(OCCN2CCC(CN3CCN(c4ccc5c(c4)CN([C@H]4CCC(=O)NC4=O)C5=O)CC3)CC2)cc1)c1ccc(B(O)O)cc1)c1ccccc1 [Compound 73, (S,Z)-(4-(1-(4-(2-(4-((4-(2-(2,6-dioxopiperidin-3-yl)-1-oxoisoindolin-5-yl)piperazin-1-yl)methyl)piperidin-1-yl)ethoxy)phenyl)-2-phenylbut-1-en-1-yl)phenyl)boronic acid]",< 10 nM,> 90%,< 10 nM,< 10 nM
"CC/C(=C(/c1ccc(OCCN2CCC(CN3CCN(c4ccc5c(c4)CN([C@@H]4CCC(=O)NC4=O)C5=O)CC3)CC2)cc1)c1ccc(B(O)O)cc1)c1ccccc1 [Compound 74, (R,Z)-(4-(1-(4-(2-(4-((4-(2-(2,6-dioxopiperidin-3-yl)-1-oxoisoindolin-5-yl)piperazin-1-yl)methyl)piperidin-1-yl)ethoxy)phenyl)-2-phenylbut-1-en-1-yl)phenyl)boronic acid]",< 10 nM,> 90%,< 10 nM,< 10 nM
"CC/C(=C(\c1ccc(OCCN2CCC(CN3CCN(c4ccc5c(c4)CN([C@H]4CCC(=O)NC4=O)C5=O)CC3)CC2)cc1)c1ccc(B(O)O)cc1)c1ccccc1 [Compound 75, (S,E)-(4-(1-(4-(2-(4-((4-(2-(2,6-dioxopiperidin-3-yl)-1-oxoisoindolin-5-yl)piperazin-1-yl)methyl)piperidin-1-yl)ethoxy)phenyl)-2-phenylbut-1-en-1-yl)phenyl)boronic acid]",< 10 nM,> 90%,< 10 nM,< 10 nM
CC/C(=C(\c1ccc(OCCN2CCC(CN3CCN(c4ccc5c(c4)CN([C@@H]4CCC(=O)NC4=O)C5=O)CC3)CC2)cc1)c1ccc(B(O)O)cc1)c1ccccc1 [Compound 76],< 10 nM,> 90%,< 10 nM,< 10 nM
CC/C(=C(\c1ccc(O)cc1)c1ccc(OCCN2CCN(C(=O)N3CCN(c4ccc5c(c4)CN(C4CCC(=O)NC4=O)C5=O)CC3)CC2)cc1)c1ccccc1 (stereo not shown) [Compound 77],< 10 nM,> 90%,< 10 nM,< 10 nM
"CC/C(=C(\c1ccc(O)cc1)c1ccc(OCCN2CCN(C(=O)N3CCN(c4ccc5c(c4)CN([C@H]4CCC(=O)NC4=O)C5=O)CC3)CC2)cc1)c1ccccc1 [Compound 78, (S,Z)-3-(5-(4-(4-(2-(4-(1-(4-hydroxyphenyl)-2-phenylbut-1-en-1-yl)phenoxy)ethyl)piperazine-1-carbonyl)piperazin-1-yl)-1-oxoisoindolin-2-yl)piperidine-2,6-dione]",< 10 nM,> 90%,< 10 nM,< 10 nM
"CC/C(=C(\c1ccc(O)cc1)c1ccc(OCCN2CCN(C(=O)N3CCN(c4ccc5c(c4)CN([C@@H]4CCC(=O)NC4=O)C5=O)CC3)CC2)cc1)c1ccccc1 [Compound 79, (R,Z)-3-(5-(4-(4-(2-(4-(1-(4-hydroxyphenyl)-2-phenylbut-1-en-1-yl)phenoxy)ethyl)piperazine-1-carbonyl)piperazin-1-yl)-1-oxoisoindolin-2-yl)piperidine-2,6-dione]",< 10 nM,> 90%,< 10 nM,< 10 nM

# Continued, values first:
DC50 (ERα),Dmax (ERα),IC50 (ER),IC50 [1],SMILES
10 to 50 nM,> 90%,10 to 50 nM,10 to 50 nM,"CC/C(=C(/c1ccc(B(O)O)cc1)c1ccc(N2CCN(CCN3CCN(c4ccc5c(c4)C(=O)N(C4CCC(=O)NC4=O)C5=O)CC3)CC2)cc1)c1ccccc1 (stereo not shown) [Compound 60, (E)-(4-(1-(4-(4-(2-(4-(2-(2,6-dioxopiperidin-3-yl)-1,3-dioxoisoindolin-5-yl)piperazin-1-yl)ethyl)piperazin-1-yl)phenyl)-2-phenylbut-1-en-1-yl)phenyl)boronic acid]"
10 to 50 nM,> 90%,10 to 50 nM,10 to 50 nM,"CC/C(=C(\c1ccc(B(O)O)cc1)c1ccc(N2CCC(CCN3CCN(c4ccc5c(c4)C(=O)N(C4CCC(=O)NC4=O)C5=O)CC3)CC2)cc1)c1ccccc1 (stereo not shown) [Compound 63, (Z)-(4-(1-(4-(4-(2-(4-(2-(2,6-dioxopiperidin-3-yl)-1,3-dioxoisoindolin-5-yl)piperazin-1-yl)ethyl)piperidin-1-yl)phenyl)-2-phenylbut-1-en-1-yl)phenyl)boronic acid]"
10 to 50 nM,> 90%,10 to 50 nM,10 to 50 nM,CC/C(=C(/c1ccc(B(O)O)cc1)c1ccc(N2CCC(CCN3CCN(c4ccc5c(c4)C(=O)N(C4CCC(=O)NC4=O)C5=O)CC3)CC2)cc1)c1ccccc1 (stereo not shown) [Compound 64]
< 10 nM,> 90%,< 10 nM,10 to 50 nM,"CC/C(=C(\c1ccc(B(O)O)cc1)c1ccc(N2CCN(CCC3CCN(c4ccc5c(c4)C(=O)N(C4CCC(=O)NC4=O)C5=O)CC3)CC2)cc1)c1ccccc1 (stereo not shown) [Compound 65, (Z)-(4-(1-(4-(4-(2-(1-(2-(2,6-dioxopiperidin-3-yl)-1,3-dioxoisoindolin-5-yl)piperidin-4-yl)ethyl)piperazin-1-yl)phenyl)-2-phenylbut-1-en-1-yl)phenyl)boronic acid]"
< 10 nM,> 90%,10 to 50 nM,10 to 50 nM,"CC/C(=C(/c1ccc(B(O)O)cc1)c1ccc(N2CCN(CCC3CCN(c4ccc5c(c4)C(=O)N(C4CCC(=O)NC4=O)C5=O)CC3)CC2)cc1)c1ccccc1 (stereo not shown) [Compound 66, (E)-(4-(1-(4-(4-(2-(1-(2-(2,6-dioxopiperidin-3-yl)-1,3-dioxoisoindolin-5-yl)piperidin-4-yl)ethyl)piperazin-1-yl)phenyl)-2-phenylbut-1-en-1-yl)phenyl)boronic acid]"
< 10 nM,> 90%,< 10 nM,< 10 nM,"CC/C(=C(\c1ccc(B(O)O)cc1)c1ccc(N2CCN(CCC3CCN(c4ccc5c(c4)CN(C4CCC(=O)NC4=O)C5=O)CC3)CC2)cc1)c1ccccc1 (stereo not shown) [Compound 67, (Z)-(4-(1-(4-(4-(2-(1-(2-(2,6-dioxopiperidin-3-yl)-1-oxoisoindolin-5-yl)piperidin-4-yl)ethyl)piperazin-1-yl)phenyl)-2-phenylbut-1-en-1-yl)phenyl)boronic acid]"
< 10 nM,> 90%,< 10 nM,< 10 nM,"CC/C(=C(/c1ccc(B(O)O)cc1)c1ccc(N2CCN(CCC3CCN(c4ccc5c(c4)CN(C4CCC(=O)NC4=O)C5=O)CC3)CC2)cc1)c1ccccc1 (stereo not shown) [Compound 68, (E)-(4-(1-(4-(4-(2-(1-(2-(2,6-dioxopiperidin-3-yl)-1-oxoisoindolin-5-yl)piperidin-4-yl)ethyl)piperazin-1-yl)phenyl)-2-phenylbut-1-en-1-yl)phenyl)boronic acid]"
